Patent US20210177722A1, “Phytic Acid Ester Derivative” (NATIONAL UNIVERSITY CORPORATION KUMAMOTO UNIVERSITY, priority 2018, published 2021)

Experiments:
[1] = system: TRAF6; test: Western blotting (2), anti-TRAF6 antibody, Jurkat cell; type: cell-based, human; settings: 1 μM or 10 μM, 8 hours or 24 hours
Protocol: In this example, in the same manner as in Example 4, the action mechanism for killing cells by Pro-IP6 was checked by Wester blotting using a Jurkat cell and various antibodies. Jurkat cells (1×10^5 cells/well, culture fluid: 500 μL) were seeded in a 24-well plate to be cultured overnight. Thereafter, DMSO (1%, Fujifilm Wako Pure Chemical Corporation), an aqueous solution (1%) of IP6 (final concentration 10 μM, Sigma Aldrich), or a DMSO solution (1%) of Pro-IP6 (final concentration: 1 μM or 10 μM) was added thereto, followed by culturing for 8 hours or 24 hours. A supernatant was removed, the resultant was washed with 1× PBS (−) once, Laemmli sample buffer was added thereto, and the resultant was boiled at 100° C. for […] to dissolve the cells. The resultant was subjected to electrophoresis and then transferred onto a membrane (Millipore). […] Detection was performed using ImmunoStar LD (Fujfilm Wako Pure Chemical Corporation).

[2] = system: HeLa cell; test: Quantitative determination of IP6 in cell (LC/MS of IP6 methyl ester); type: cell-based; settings: HeLa cells, 10 μM, 30 minutes
Protocol: In this example, incorporation of Pro-IP6 into a HeLa cell was quantitatively determined.
HeLa cells (5×10^5 cells/well, culture fluid: 1 mL) were seeded in a 3.5 cm dish to be cultured for 24 hours. Thereafter, DMSO (1%, Fujifilm Wako Pure Chemical Corporation), an aqueous solution (1%) of IP6 (final concentration: 10 μM, Sigma Aldrich), or a DMSO solution (1%) of Pro-IP6 (final concentration: 10 μM) synthesized in Example 1 was added thereto, and the resultant was cultured for another 30 minutes. HeLa cells were cultured with neither IP6 nor Pro-IP6 added, followed by adding the same amount of DMSO thereto, and the resultant was used as a negative control.
Thereafter, the resultant was washed with 1× PBS (−) once, and the resultant cells were scraped with a cell scraper, transferred to a 1.5 mL tube, and washed with 1× PBS (−) three times. To the thus obtained precipitate, 350 μl of MeOH (Fujifilm Wako Pure Chemical Corporation) and 1% NP-40 (Nacalai Tesque, Inc.) were added, followed by sonication (10 minutes). After equilibrating a column (Oasis WAX 1cc, Waters) with MeOH (1 mL) and H2O (1 mL), a disrupted cell extract was added thereto. Thereafter, the column was washed with 50% MeOH (1 mL), and eluted with 50% MeOH (200 μL×2) containing 2 mol/L of HCl (Fujifilm Wako Pure Chemical Corporation). The thus obtained eluate was concentrated, and dissolved in MeOH (50 μL), and trimethylsilyldiazomethane (200 μl, Tokyo Chemical Industry Co., Ltd.) was added thereto, followed by stirring at 50° C. for 1 hour under argon atmosphere. The reaction was stopped by adding H2O (100 μL). Through a reaction of trimethylsilyidiazomethane with IP6, IP6 methyl ester is obtained.
The thus obtained sample (IP6 methyl ester) was measured by LC/MS [column: MastroC18 2.1 mm×100 mm, […] (Shimadzu GLC Ltd.), mobile phase: 0.1% formic acid solution (Fujifilm Wako Pure Chemical Corporation), acetonitrile (Fujifilm Wako Pure Chemical Corporation)] [LC:LC-20AD (Shimadzu), MS: amaZon speed (BRUKER)].

[3] = system: M8166 cell (human T-lymphoblastoid cell); test: MTT assay, M8166 cell; type: cell-based
Protocol: (§1) In this example, the cytotoxic effect of Pro-IP6 on four types of blood cancer cell lines and a cell derived from a healthy person was examined by MTT assay. […] It is possible to check viability of cultured cells by MTT assay. Cancer cell lines (1.74×10^4 cells/well, culture fluid: 200 μL) • MT-2 cell (HTLV transformed human T cell leukemia cell) • […] cell (human T-lymphoblastoid cell) • Jurkat cell (human T-lymphocyte cell) • K562 cell (chronic myelogenous leukemia cell) Each of the above-described types of cells was seeded in a 96-well plate, and was cultured for 8 hours for each of the various cancer cell lines and for 16 hours for PMBC. Thereafter, DMSO (1%, Fujifilm Wako Pure Chemical Corporation), an aqueous solution (1%) of IP6 (final concentration: 1 μM or 10 μM, Sigma Aldrich), or a DMSO solution (1%) of Pro-IP6 (final concentration: 1 μM or 10 μM) was added thereto, followed by culturing for 8 hours or 24 hours. An MTT reagent (Dojindo Laboratories, 1.1 mg/mL) was added in an amount of 50 μL per well, and the resultant was cultured for another 4 hours. The thus precipitated crystal was collected, a supernatant was removed, and 100 μL of DMSO was added thereto to completely dissolve. The resultant solution was measured for an absorbance (550 nm).

[4] = system: Caspase-3; test: Western blotting (1), Caspase-3 antibody, Jurkat cell; type: cell-based, human; settings: 10 μM
Protocol: (§2) In this example, the action mechanism for killing cells by Pro-IP6 was studied by Wester blotting using a Jurkat cell and various antibodies. Jurkat cells (1×10^5 cells/well, culture fluid: 500 μL) were seeded in a 24-well plate to be cultured overnight. Thereafter, DMSO (1%, Fujifilm Wako Pure Chemical Corporation), an aqueous solution (1%) of IP6 (final concentration: 10 μM, Sigma Aldrich), or a DMSO solution (1%) of Pro-IP6 (final concentration: 1 μM or 10 μM) was added thereto, followed by culturing for 8 hours or 24 hours. A supernatant was removed, the resultant was washed with 1× PBS (−) once, Laemmli sample buffer was added thereto, and the resultant was boiled at 100° C. for 1 hour to dissolve the cells. […] Detection was performed using ImmunoStar LD (Fujifilm Wako Pure Chemical Corporation).

[5] = system: Akt; test: Western blotting (1), anti-phospho-Akt (Thr308) antibody, Jurkat cell; type: cell-based, human; settings: 8 hours or 24 hours
Protocol: as §2

[6] = system: K562 cell (chronic myelogenous leukemia cell); test: MTT assay, K562 cell; type: cell-based; settings: 1 μM or 10 μM, 8 hours or 24 hours
Protocol: as §1

**Q.** What does the source list for `CCCC(=O)OCOP(=O)(OCOC(=O)CCC)O[C@H]1[C@H](OP(=O)(OCOC(=O)CCC)OCOC(=O)CCC)[C@@H](OP(=O)(OCOC(=O)CCC)OCOC(=O)CCC)[C@H](OP(=O)(OCOC(=O)CCC)OCOC(=O)CCC)[C@@H](OP(=O)(OCOC(=O)CCC)OCOC(=O)CCC)[C@H]1OP(=O)(OCOC(=O)CCC)OCOC(=O)CCC` [Pro-IP6, myo-inositol hexaphosphate dodecakis(butyryloxymethyl) ester]?
**A.** expression of TRAF6 [1]: inhibits expression of TRAF6; incorporation into HeLa cell (IP6 methyl ester by LC/MS vs negative control) [2]: well incorporated; amount of IP6 methyl ester observed in cell relative to that of IP6 ([2]; LC/MS): not less than 200 times; cytotoxic effect at 10 μM [3]: most of the cells were killed; lowering of relative cell viability ([3]; M8166 cell, 1 μM or 10 μM, 8 hours or 24 hours): ≥ 25%; cleavage of Caspase-3 (induction of apoptosis) [4]: cleavage of PARP-1 and Caspase-3 was observed; phosphorylation of Akt ([5]; 1 μM): inhibits phosphorylation of Akt; phosphorylation of Akt ([5]; 10 μM): inhibits phosphorylation of Akt; lowering of relative cell viability [6]: ≥ 25%
